{"source": "ChEMBL document CHEMBL2424561", "about": "“Discovery of new antitubercular agents by combining pyrazoline and benzoxazole pharmacophores: design, synthesis and insights into the binding interactions” (2013)", "data": [{"test_system": "Mycobacterium tuberculosis", "assay": "Antitubercular activity against multidrug-resistant Mycobacterium tuberculosis after 6 weeks", "assay_type": "functional", "units": {"MIC": "µg/mL"}, "values": [{"smiles": "CC(=O)N1N=C(c2ccccc2)CC1c1cc(Cl)c2oc(S)nc2c1", "note": "(stereo not given)", "MIC": 25}, {"smiles": "CC(=O)N1N=C(c2ccccc2Br)CC1c1cc(Cl)c2oc(S)nc2c1", "note": "(stereo not given)", "MIC": 12.5}, {"smiles": "COc1cc(C2CC(c3ccccc3)=NN2C(C)=O)cc(N)c1O", "note": "(stereo not given)", "MIC": 25}, {"smiles": "COc1cc(C2CC(c3ccc(Cl)cc3Cl)=NN2C(C)=O)cc(N)c1O", "note": "(stereo not given)", "MIC": 12.5}, {"smiles": "COc1cc(C2CC(c3ccc(F)cc3)=NN2C(C)=O)cc(N)c1O", "note": "(stereo not given)", "MIC": 25}, {"smiles": "COc1cc(C2CC(c3ccccc3Br)=NN2C(C)=O)cc(N)c1O", "note": "(stereo not given)", "MIC": 3.25}, {"smiles": "CC(=O)N1N=C(c2ccccc2)CC1c1ccc(O)c(N)c1", "note": "(stereo not given)", "MIC": 25}, {"smiles": "CC(=O)N1N=C(c2ccccc2Br)CC1c1ccc(O)c(N)c1", "note": "(stereo not given)", "MIC": 12.5}, {"smiles": "CC(=O)N1N=C(c2ccccc2)CC1c1cc(N)c(O)c(Cl)c1", "note": "(stereo not given)", "MIC": 25}, {"smiles": "CC(=O)N1N=C(c2ccccc2Br)CC1c1cc(N)c(O)c(Cl)c1", "note": "(stereo not given)", "MIC": 25}, {"smiles": "COc1cc(C2CC(c3ccccc3)=NN2C(C)=O)cc2nc(N)oc12", "note": "(stereo not given)", "MIC": 6.25}, {"smiles": "COc1cc(C2CC(c3ccc(Cl)cc3Cl)=NN2C(C)=O)cc2nc(N)oc12", "note": "(stereo not given)", "MIC": 12.5}, {"smiles": "COc1cc(C2CC(c3ccc(F)cc3)=NN2C(C)=O)cc2nc(N)oc12", "note": "(stereo not given)", "MIC": 25}, {"smiles": "COc1cc(C2CC(c3ccccc3Br)=NN2C(C)=O)cc2nc(N)oc12", "note": "(stereo not given)", "MIC": 25}, {"smiles": "CC(=O)N1N=C(c2ccccc2)CC1c1ccc2oc(N)nc2c1", "note": "(stereo not given)", "MIC": 25}, {"smiles": "CC(=O)N1N=C(c2ccccc2Br)CC1c1ccc2oc(N)nc2c1", "note": "(stereo not given)", "MIC": 12.5}, {"smiles": "CC(=O)N1N=C(c2ccccc2)CC1c1cc(Cl)c2oc(N)nc2c1", "note": "(stereo not given)", "MIC": 25}, {"smiles": "CC(=O)N1N=C(c2ccccc2Br)CC1c1cc(Cl)c2oc(N)nc2c1", "note": "(stereo not given)", "MIC": 25}, {"smiles": "COc1cc(C2CC(c3ccccc3)=NN2C(C)=O)cc2nc(S)oc12", "note": "(stereo not given)", "MIC": 12.5}, {"smiles": "COc1cc(C2CC(c3ccc(Cl)cc3Cl)=NN2C(C)=O)cc2nc(S)oc12", "note": "(stereo not given)", "MIC": 12.5}, {"smiles": "COc1cc(C2CC(c3ccc(F)cc3)=NN2C(C)=O)cc2nc(S)oc12", "note": "(stereo not given)", "MIC": 6.25}, {"smiles": "COc1cc(C2CC(c3ccccc3Br)=NN2C(C)=O)cc2nc(S)oc12", "note": "(stereo not given)", "MIC": 25}, {"smiles": "CC(=O)N1N=C(c2ccccc2)CC1c1ccc2oc(S)nc2c1", "note": "(stereo not given)", "MIC": 25}, {"smiles": "CC(=O)N1N=C(c2ccccc2Br)CC1c1ccc2oc(S)nc2c1", "note": "(stereo not given)", "MIC": 6.25}, {"smiles": "NNC(=O)c1ccncc1", "note": "[ISONIAZID]", "MIC": 6.25}]}]}
